IC50 data for three compounds are collected here from ChEMBL document CHEMBL1150086, “New steroid acids from Antrodia cinnamomea, a fungal parasite of Cinnamomum micranthum” (J Nat Prod, 1995).

Molecules are shown by their SMILES. Converted amounts (≈) assume the structure as drawn.

This experiment concerns P388. Description: Cytotoxicity against mouse P388 cells after 72 hrs. It is filed as functional, cell-based. Particulars: P388, 72 h.
`C=C(CC[C@@H](C)[C@H]1CC[C@H]2C3=C(C(=O)[C@H](O)[C@]12C)[C@@]1(C)CC[C@@H](O)[C@@H](C)[C@@H]1CC3=O)C(C)C(=O)O` (stereo partly drawn) [ZHANKUIC ACID C]: the IC50 (commonly the concentration needed to halve the response being measured) came to 5.4 µg/mL (≈ 11.1 µM).
The value for `CO[C@H](C(=O)[C@@H](O)[C@@H](C)O)[C@@H]1Cc2cc3cc(O[C@H]4C[C@@H](O[C@@H]5C[C@@H](O)[C@H](O)[C@@H](C)O5)[C@H](O)[C@@H](C)O4)c(C)c(O)c3c(O)c2C(=O)[C@H]1O[C@H]1C[C@@H](O[C@@H]2C[C@@H](O)[C@@H](O[C@@H]3C[C@](C)(O)[C@H](O)[C@@H](C)O3)[C@@H](C)O2)[C@H](O)[C@@H](C)O1` [PLICAMYCIN] was 0.06 µg/mL (≈ 0.0553 µM); that for `C=C(CC[C@@H](C)[C@H]1CC[C@H]2C3=C(C(=O)C[C@]12C)[C@@]1(C)CCC(=O)[C@@H](C)[C@@H]1CC3=O)C(C)C(=O)O` (stereo partly drawn) [ZHANKUIC ACID A] was 1.8 µg/mL (≈ 3.84 µM).
